In ChEMBL document CHEMBL3792337, “Cardiac Glycosides from the Seeds of Thevetia peruviana” (J Nat Prod, 2016):

Key:
[1] = Cytotoxicity against human LO2 cells after 48 hrs by MTT assay; assay type: cell-based; conditions: L02, 48 h
[2] = Cytotoxicity against human MGC803 cells after 48 hrs by MTT assay; assay type: functional, cell-based; conditions: MGC-803, 48 h
MGC-803 = assay: Induction of apoptosis in human MGC803 cells after 24 hrs by annexin V-FITC/propidium iodide staining-based flow cytometry; assay type: functional, cell-based
[3] = Cytotoxicity against human P15 cells after 48 hrs by MTT assay; assay type: functional, cell-based; conditions: P15, 48 h
SW1990 = assay: Cytotoxicity against human SW1990 cells after 48 hrs by MTT assay; assay type: functional, cell-based; conditions: SW1990, 48 h

Compound | IC50 [1] [nM] | IC50 [2] [nM] | Activity (MGC-803) | IC50 [3] [nM] | IC50 (SW1990) [nM]
CO[C@H]1[C@H](O)[C@H](O[C@H]2CC[C@@]3(CO)[C@H](CC[C@@H]4[C@@H]3CC[C@]3(C)[C@@H](C5=CC(=O)OC5)CC[C@]43O)C2)O[C@@H](C)[C@@H]1O | > 10000 | 40 | Dose-dependent effect | 80 | 20
CO[C@H]1[C@H](O)[C@H](O[C@H]2CC[C@@]3(C)[C@@H](CC[C@@H]4[C@@H]3CC[C@]3(C)[C@@H](C5=CC(=O)OC5)CC[C@]43O)C2)O[C@@H](C)[C@@H]1O [THEVEFOLIN] | > 10000 | 370 | Dose-dependent effect | 10 | 30
CO[C@H]1[C@H](O)[C@H](O[C@H]2CC[C@H]3[C@H](CC[C@@H]4[C@@H]3CC[C@]3(C)[C@@H](C5=CC(=O)OC5)CC[C@]43O)C2)O[C@@H](C)[C@@H]1O | > 10000 | 570 | Dose-dependent effect | 210 | 530
CO[C@H]1[C@H](O)[C@H](O[C@H]2CC[C@@]3(C)[C@H](CC[C@@H]4[C@@H]3CC[C@]3(C)[C@@H](C5=CC(=O)OC5)CC[C@]43O)C2)O[C@@H](C)[C@@H]1O [NERIIFOLIN] | > 10000 | 20 | Dose-dependent effect | 60 | 30
